The source of these data is patent US20090041897A1, “Transparent, concentrated liquid nutritional supplement composition” (priority 2007, published 2009).

For data set [1] the following is noted: general statement in the description; cited from earlier work.
Data set [2] is described as follows: solubility, turbidity and stability of ingredients in water. The following applies: minerals considered for the concentrate. The data set is classed as physicochemical.
Experimental: Each ingredient or nutrient is evaluated at suitable concentration (based on actual usage level) in 100 ml deionized water enclosed in glass bottle and checked for turbidity. Only non turbidity producing materials (estimated at 25 NTU or less) were selected. Visual evaluation also conducted to ensure clear liquids are obtained. Solutions with an estimated 30 NTG and above are eliminated as potential ingredients. Bottles were also checked for precipitated solids at 0, 2, 4, 6, 8, 10 and 24 hours at room temperature. If precipitate is observed, the ingredient/nutrient is rendered unusable for producing appealing liquid nutritional supplement. Furthermore, ingredients are evaluated in a final diluted liquid nutritional supplement and/or diluents to ensure that dilution will not change the physical appearance of concentrates. […] Insoluble materials are excluded from the formulation. Saturation point is also observed for each ingredient/nutrient to ensure that no precipitation will occur. […] Each ingredient or nutrient is evaluated at suitable concentration (based on actual usage level) in 100 ml deionized water enclosed in glass bottle and checked turbidity. […] Furthermore, ingredients are evaluated in a final diluted liquid nutritional supplement to ensure that dilution will not change the physical appearance of concentrates. […]

As to Gelatin, in data set [1], the solubility in water entry is “soluble only in hot water”.

On to `[Mg+2]` [magnesium], for which, in data set [2], the “effect on clarity of concentrate and finished liquid nutritional supplement” value was “induce cloudiness and turbidity”; the solubility result is listed as “not soluble”.

On to Hydrolyzed Collagen, for which the solubility in water result in data set [1] was “readily water soluble”.

Regarding `CS(C)(=O)=O` [MSM, Methyl-Sulfonyl-Methane], the solubility in water result in data set [1] is “readily water soluble”.

For `N[C@H]1C(O)O[C@H](CO)[C@@H](O)[C@@H]1O` (some centres unmarked) [Glucosamine], the solubility in water entry in data set [1] is “water-soluble”.

Regarding Chondroitin sulfate, the solubility in water entry in data set [1] is listed as “soluble in water”.

Take `O=C1O[C@H]([C@@H](O)CO)C(O)=C1O` [Vitamin C, Ascorbic Acid]: the stability in water entry in data set [1] is recorded as “degrades in water in fast fashion”.
